Measurements reported in US20070082055A1, “Stable micronized candesartan cilexetil and methods for preparing thereof” (priority 2005, published 2007).
Several values for one entry are separate records, joined by “and”; a condition that tells them apart may be missing. Equal entries are not always repeated. Where two headings read alike, the source gives them in different places. Values belong to the molecule of their own block, whether it stands above or below them.

Tests used:
[1] = cited from earlier work
[2] = for Desethyl-CNS: as obtained
[3] = Table 3, after 2 weeks at 55° C.
[4] = after maintaining for 2 weeks (oven at 55° C.)

- 2-N-ethyl CNS [2, 3]: 0.03 w/w %
- CNS desethyl [2, 3]: 0.05 w/w %
Compound: CCOc1nc2cccc(C(=O)OC(C)OC(=O)OC3CCCCC3)c2n1Cc1ccc(-c2ccccc2-c2nnn[nH]2)cc1 (centres unmarked) [Product B, candesartan cilexetil]
- 1-N-ethyl CNS [2, 3]: LTDL (LTDL means less than detection limit)

- CNS desethyl ([2]; 2 weeks, HPLC): 0.10 w/w % and 0.06 w/w %
- CNS desethyl ([2]; T = 0, HPLC): 0.08 w/w % and 0.03 w/w %
Compound: CCOc1nc2cccc(C(=O)OC(C)OC(=O)OC3CCCCC3)c2n1Cc1ccc(-c2ccccc2-c2nnn[nH]2)cc1 (centres unmarked) [Slurried fine particle size sample, candesartan cilexetil]

- level of desethyl-CNS [2, 4]: 0.41 % w/w by HPLC
- level of desethyl-CNS ([2]; before storage): 0.24 % w/w by HPLC
Compound: CCOc1nc2cccc(C(=O)OC(C)OC(=O)OC3CCCCC3)c2n1Cc1ccc(-c2ccccc2-c2nnn[nH]2)cc1 (centres unmarked) [micronized CNS-Cryst, candesartan cilexetil]

- level of desethyl-CNS [2, 4]: 0.14 % w/w by HPLC
- level of desethyl-CNS ([2]; before storage): 0.04 % w/w by HPLC
Compound: CCOc1nc2cccc(C(=O)OC(C)OC(=O)OC3CCCCC3)c2n1Cc1ccc(-c2ccccc2-c2nnn[nH]2)cc1 (centres unmarked) [micronized material, candesartan cilexetil]

- level of desethyl-CNS ([2]; after maintaining for 2 weeks (oven at 55° C.), listed as obtained product): 0.10 % w/w by HPLC
- Desethyl-CNS ([2]; before storage): 0.08%
Compound: CCOc1nc2cccc(C(=O)OC(C)OC(=O)OC3CCCCC3)c2n1Cc1ccc(-c2ccccc2-c2nnn[nH]2)cc1 (centres unmarked) [stable candesartan cilexetil Form I, candesartan cilexetil]

The next lines start with the molecule.

Compound: CCOc1nc2cccc(C(=O)OC(C)OC(=O)OC3CCCCC3)c2n1Cc1ccc(-c2ccccc2-c2nnn[nH]2)cc1 (racemic) [Candesartan cilexetil, (±)-1-[[(cyclohexyloxy)carbonyl]oxy]ethyl-2-ethoxy-1-[[2′-(1H-tetrazol-5-yl)[1,1 ′biphenyl]-4-yl]methyl]-1H-benzimidazole-7-carboxylate]
- solubility in methanol ([1]; methanol): sparingly soluble
- solubility in water ([1]; water): sparingly soluble
- CNS-desethyl ([2]; time of slurry 2 hr, 2 weeks): 0.07 w/w %
- CNS-desethyl ([2]; time of slurry 2 hr, T = 0): 0.03 w/w %
- CNS-desethyl ([2]; time of slurry 20 hr, 2 weeks): 0.03 w/w %
- CNS-desethyl ([2]; time of slurry 20 hr, T = 0): LTDL (LTDL means less than detection limit)

Compound: CCOc1nc2cccc(C(=O)OC(C)OC(=O)OC3CCCCC3)c2n1Cc1ccc(-c2ccccc2-c2nnn[nH]2)cc1 (centres unmarked) [Fine particle size, candesartan cilexetil]
- 2-N-ethyl CNS ([2]; 2 weeks, HPLC): 0.09 w/w % and 0.29 w/w %
- CNS desethyl ([2]; 2 weeks, HPLC): 0.14 w/w % and 0.41 w/w %
- CNS desethyl ([2]; T = 0, HPLC): 0.04 w/w % and 0.24 w/w %

Compound: CCOc1nc2cccc(C(=O)OC(C)OC(=O)OC3CCCCC3)c2n1Cc1ccc(-c2ccccc2-c2nnn[nH]2)cc1 (centres unmarked) [Product, candesartan cilexetil]
- 1-N-ethyl CNS ([2]; Table 3, before storage): LTDL (LTDL means less than detection limit)
- 2-N-ethyl CNS ([2]; Table 3, before storage): 0.03 w/w %
- CNS desethyl ([2]; Table 3, before storage): 0.05 w/w %
- level of desethyl-CNS ([2]; before storage): 0.05 % w/w by HPLC

Compound: CCOc1nc2cccc(C(=O)OC(C)OC(=O)OC3CCCCC3)c2n1Cc1ccc(-c2ccccc2-c2nnn[nH]2)cc1 (centres unmarked) [Sample 1, candesartan cilexetil]
- 1-N-ethyl CNS ([2]; Table 3, before storage): LTDL (LTDL means less than detection limit)
- 2-N-ethyl CNS ([2]; Table 3, before storage): LTDL (LTDL means less than detection limit)
- CNS desethyl ([2]; Table 3, before storage): 0.04 w/w %

Compound: CCOc1nc2cccc(C(=O)OC(C)OC(=O)OC3CCCCC3)c2n1Cc1ccc(-c2ccccc2-c2nnn[nH]2)cc1 (centres unmarked) [Sample 1B, candesartan cilexetil]
- 1-N-ethyl CNS [2, 3]: 0.04 w/w %
- 2-N-ethyl CNS [2, 3]: 0.15 w/w %
- CNS desethyl [2, 3]: 0.20 w/w %

Compound: CCOc1nc2cccc(C(=O)OC(C)OC(=O)OC3CCCCC3)c2n1Cc1ccc(-c2ccccc2-c2nnn[nH]2)cc1 (centres unmarked) [candesartan cilexetil Form I, candesartan cilexetil]
- level of desethyl-CNS [2, 4]: 0.07 % w/w by HPLC
- Desethyl-CNS ([2]; before storage): 0.03 % by area HPLC

Compound: CCOc1nc2cccc(C(=O)OC(C)OC(=O)OC3CCCCC3)c2n1Cc1ccc(-c2ccccc2-c2nnn[nH]2)cc1 (centres unmarked) [candesartan cilexetil]
- CNS-desethyl ([2]; fine particle size, time of slurry 3 hr, 2 weeks): 0.10 w/w %
- CNS-desethyl ([2]; fine particle size, time of slurry 3 hr, T = 0): 0.07 w/w %
- CNS-desethyl ([2]; fine particle size, time of slurry 6 hr, 2 weeks): 0.07 w/w %
- CNS-desethyl ([2]; fine particle size, time of slurry 6 hr, T = 0): 0.06 w/w %
- CNS-desethyl ([2]; fine particle size, time of slurry 9 hr, 2 weeks): 0.06 w/w %
- CNS-desethyl ([2]; fine particle size, time of slurry 9 hr, T = 0): 0.05 w/w %
- CNS-desethyl ([2]; fine particle size, time of slurry 13 hr, 2 weeks): 0.06 w/w %
- CNS-desethyl ([2]; fine particle size, time of slurry 13 hr, T = 0): 0.05 w/w %
- CNS-desethyl ([2]; fine particle size, time of slurry 23 hr, 2 weeks): 0.05 w/w %
- CNS-desethyl ([2]; fine particle size, time of slurry 23 hr, T = 0): 0.04 w/w %

Compound: CCOc1nc2cccc(C(=O)OC(C)OC(=O)OC3CCCCC3)c2n1Cc1ccc(-c2ccccc2-c2nnn[nH]2)cc1 (centres unmarked) [stable micronized candesartan Form I, candesartan cilexetil]
- desethyl-CNS level ([2]; after maintaining for 2 weeks): 0.06 % area by HPLC
- level of desethyl-CNS ([2]; before storage): 0.03 % w/w by HPLC
